Data as given in patent US6790864B2, “Compositions and methods to prevent toxicity induced by nonsteroidal antiinflammatory drugs” (NitroMed, Inc., priority 1995, dated 2004).

Assays:
[1] = tested on: phenylbenzoquinone-induced writhing; assay: phenylbenzoquinone-induced writhing test in mice (analgesic activity); type: in vivo; conditions: ratio of activity relative to the parent NSAID; oral gavage 1 hour prior to phenylbenzoquinone i.p.
Method: The phenylbenzoquinone-induced writhing test in mice was used to measure analgesic activity. The ability of the compounds to inhibit phenylbenzoquinone-induced writhing in mice was measured using the method of Siegmund et al., Proc. Soc. […] Male CD-1 mice (Charles River Laboratories, Wilmington, Mass.) weighing 20-25 g were fasted overnight. Vehicle or compounds were administered by oral gavage 1 hour prior to i.p. injection of 2 mg/kg of phenylbenzoquinone. In the case of a nitric oxide adduct being given in combination with a NSAID, the nitric oxide adduct was administered immediately before the NSAID. Five minutes after the i.p. injection of phenylbenzoquinone, the number of writhes in a 5 minute period was counted.

carrageenin paw edema = assay: rat paw edema test (antiinflammatory activity); type: in vivo, rats; conditions: ratio of activity relative to the parent NSAID; oral gavage one hour prior to carrageenin, paw volume after three hours
Method: The rat paw edema test was used to measure antiinflammatory activity. The rat paw edema test was performed according to the method of Winter et al., Proc. Soc. […] Male Sprague-Dawley rats (250-275 g) were fasted overnight and dosed by oral gavage with vehicle or suspensions of compound one hour prior to the subplantar injection of 50 μl of 1% suspension of carrageenin. Three hours later, the paw volume was measured and compared with the initial volume measured immediately after carrageenin injection.

gastric lesion [2] = assay: rat gastric lesion test, multiple dosing studies; type: in vivo, rats
Method: The rat gastric lesion test (Kitagawa et al., J. Pharmacol. Exp.Ther., 253:1133-1137, 1990; Al-Ghamdi et al., J. Int. Med. Res., 19: 2242, 1991) was used to evaluate the potential of compounds to produce gastric lesion. Male Sprague Dawley rats (Charles River Laboratories, Wilmington, Mass.) weighing 230-250 g were used for the experiments. The rats were housed with laboratory chow and water ad libitum prior to the study. The rats were fasted for 24-30 hours with free access to water and then dosed by oral gavage with vehicle or with drugs given at a volume of 0.5 mL/100 g. For the unmodified NSAIDs being given in combination with a nitric oxide adduct (NO-adduct), the NO-adduct was administered by oral gavage immediately prior to the administration of NSAID by oral gavage. […] For acute studies, rats were euthanized by CO2 eighteen hours after dosing and the stomachs were dissected. […] […] The stomachs were dissected along the greater curvature, washed with a directed stream of 0.9% saline and pinned open on a sylgard based petridish for examination of the hemorrhagic lesion. Gastric lesion score was expressed in mm and calculated by summing the length of each lesion.

gastric lesion [3] = assay: rat gastric lesion test, acute (single dose); type: in vivo, rats
Method: The rat gastric lesion test (Kitagawa et al., J. Pharmacol. Exp.Ther., 253:1133-1137, 1990; Al-Ghamdi et al., J. Int. Med. Res., 19: 2242, 1991) was used to evaluate the potential of compounds to produce gastric lesion. Male Sprague Dawley rats (Charles River Laboratories, Wilmington, Mass.) weighing 230-250 g were used for the experiments. The rats were housed with laboratory chow and water ad libitum prior to the study. The rats were fasted for 24-30 hours with free access to water and then dosed by oral gavage with vehicle or with drugs given at a volume of 0.5 mL/100 g. For the unmodified NSAIDs being given in combination with a nitric oxide adduct (NO-adduct), the NO-adduct was administered by oral gavage immediately prior to the administration of NSAID by oral gavage. Food was withheld for 18 hours after the initial dosing. For acute studies, rats were euthanized by CO2 eighteen hours after dosing and the stomachs were dissected. For the multiple dosing studies, the results of which are in Table 3, food was given eighteen hours after the first dose and the rats were maintained on food and water ad libitum while receiving a single daily dose for the remainder of the experiment. […] The stomachs were dissected along the greater curvature, washed with a directed stream of 0.9% saline and pinned open on a sylgard based petridish for examination of the hemorrhagic lesion. Gastric lesion score was expressed in mm and calculated by summing the length of each lesion.

[4] = 7 days, fasted 24-30 hours before and 18 hours after first dosing, Ibuprofen 30, Example 11 50, Example 12 45 mg/kg
[5] = ratio of activity relative to the parent NSAID, oral gavage, fasted rats
[6] = male, Sprague Dawley, rat, in vivo, po, 18 h

Compound	Relative Activity Gastric Lesion (gastric lesion [3]; rat, in vivo, po)	Relative Activity Gastric Lesion (gastric lesion [3]; [6])	Relative Activity Analgesia [1]	Relative Activity Antiinflammation (carrageenin paw edema)	Relative Gastric Lesion Activity (gastric lesion [2]; [4])	Relative Activity Gastric Lesion (gastric lesion [3]; [5])	Relative Gastric Lesion Activity (gastric lesion [2]; 4 days, fasted 24-30 hours before and 4 hours after first dosing, Ketoprofen 10, Example 4 14, Example 6 15 mg/kg)
4-O-Nitroso-4-methyl-1-(3-benzoyl-α-methylbenzeneacetic Acid) Pentyl Ester [Example 5]			1.1				
CC(C(=O)OCc1ccc(CON=O)cc1)c1cccc(C(=O)c2ccccc2)c1 (stereo not drawn) [Example 16, 4O-Nitroso-hydroxymethylene-(1-(3-benzoyl-α-methylbenzeneacetic Acid)) Benzyl Ester]			1.1				
CC(C)Cc1ccc(C(C)C(=O)OCCC(C)(C)SN=O)cc1 (stereo not drawn) [Example 11, 3-S-Nitroso-3-methyl-1-(α-methyl-4-(2-methylpropyl)benzeneacetic Acid) Butyl Ester]				1	+ (1-20% of the gastric toxcity induced by the parent NSAID = +)	<0.05	
CC(C(=O)OCCC(C)(C)SN=O)c1cccc(C(=O)c2ccccc2)c1 (stereo not drawn) [Example 6, 3-S-Nitroso-3-methyl-1-(3-benzoyl-α-methylbenzeneacetic Acid) Butyl Ester]			1				++ (21-40% of the gastric toxcity induced by the parent NSAID = ++)
4-O-Nitroso-1-(α-methyl-4-(2-methylpropyl)benzeneacetic Acid) Butyl Ester [Example 12]				1	+ (1-20% of the gastric toxcity induced by the parent NSAID = +)	<0.03	

Continued, in another order:

Relative Activity Gastric Lesion (gastric lesion [3]; rat, in vivo, po)	Relative Activity Gastric Lesion (gastric lesion [3]; [6])	Compound	Relative Activity Analgesia [1]	Relative Activity Antiinflammation (carrageenin paw edema)	Relative Gastric Lesion Activity (gastric lesion [2]; [4])	Relative Activity Gastric Lesion (gastric lesion [3]; [5])	Relative Gastric Lesion Activity (gastric lesion [2]; 4 days, fasted 24-30 hours before and 4 hours after first dosing, Ketoprofen 10, Example 4 14, Example 6 15 mg/kg)
0.03		CC(C(=O)OCCCCON=O)c1cccc(C(=O)c2ccccc2)c1 (stereo not drawn) [Example 4, 4-O-Nitroso-1-(3-benzoyl-α-methylbenzeneacetic Acid) Butyl Ester]	1.6	0.58			
	1	CN1C(C(=O)Nc2ccccn2)=C(O)c2ccccc2S1(=O)=O [Piroxicam, reference compound]	1				
0.5		CC(C(=O)OCCCCON=O)c1ccc(-c2ccccc2)c(F)c1 (stereo not drawn) [Example 13, 4-O-Nitroso-1-(2-Fluoro-α-methyl-biphenylacetic Acid) Butyl Ester]	0.31	1.83			
0.08		COc1ccc2c(c1)c(CC(=O)OCCCCON=O)c(C)n2C(=O)c1ccc(Cl)cc1 [Example 8]	1	1			
	1	CC(C(=O)O)c1ccc(-c2ccccc2)c(F)c1 (stereo not drawn) [Flurbiprofen, reference compound]	1	1			
	1	COc1ccc2c(c1)c(CC(=O)O)c(C)n2C(=O)c1ccc(Cl)cc1 [Indomethacin, reference compound]	1	1			
